Data reported in patent publication US4342753A, “Carboxyalkyl derivatives of rutin poly(H-)sulfate” (American Cyanamid Company, priority 1981, dated 1982).
Structures can show the parent of a compound that is named as a salt. Where two headings read alike, the source gives them in different places.

What was measured:
[1] = test system: human serum complement; conditions: in vitro and in vivo; cited from earlier work
[2] = target: T1, activated human C1 (Homo sapiens, UniProt P09871); assay: Test Code 026 (C1 inhibitor); assay type: biochemical; conditions: serial dilutions are twofold; higher well number indicates higher activity
T1 sequence (P09871 16-437 limits assumed): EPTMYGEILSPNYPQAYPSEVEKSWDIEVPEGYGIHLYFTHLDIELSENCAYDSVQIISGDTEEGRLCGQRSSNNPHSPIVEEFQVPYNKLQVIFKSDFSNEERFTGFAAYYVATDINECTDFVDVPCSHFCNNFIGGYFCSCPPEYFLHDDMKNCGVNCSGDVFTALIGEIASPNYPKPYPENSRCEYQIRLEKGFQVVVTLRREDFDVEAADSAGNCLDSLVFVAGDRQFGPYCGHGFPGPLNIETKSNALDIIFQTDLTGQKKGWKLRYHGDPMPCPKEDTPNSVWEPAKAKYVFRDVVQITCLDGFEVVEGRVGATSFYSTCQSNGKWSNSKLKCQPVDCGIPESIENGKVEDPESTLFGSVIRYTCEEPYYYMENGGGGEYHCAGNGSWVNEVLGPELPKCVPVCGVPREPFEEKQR
T1 sequence (P09871 438-688 limits assumed): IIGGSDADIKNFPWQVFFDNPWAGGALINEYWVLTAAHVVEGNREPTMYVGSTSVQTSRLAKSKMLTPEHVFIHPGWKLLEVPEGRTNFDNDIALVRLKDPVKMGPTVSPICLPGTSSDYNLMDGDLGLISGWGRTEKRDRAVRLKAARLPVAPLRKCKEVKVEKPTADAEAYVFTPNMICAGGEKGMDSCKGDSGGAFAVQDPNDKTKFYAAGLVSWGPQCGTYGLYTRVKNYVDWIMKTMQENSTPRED
Method: (§1) An active inhibitor protects C2 from C1 and C4; (ii) Cap 50 Test--Here, appropriate amounts of the test compound are added to a pool of guinea pig serum in vitro, after which the undiluted serum capillary tube assay referred to above is run. The concentration of compound inhibiting 50% is reported; and (iii) Guinea Pig Intraperitoneal Test (GPIP)--Guinea pigs weighing about 300 g. are dosed intraperitoneally (i.p.) with 200 mg./kg. of the test compound dissolved in saline and adjusted to pH 7-8. Approximately 0.4 ml. blood samples, taken by orbital sinus puncture 30 minutes and one hour after injections, are collected directly into centrifuge tubes; 5 ml. blood samples, taken by decapitation 2 hours after injection are collected directly into beakers. The samples are allowed to clot, centrifuged, and the resultant sera are assayed for complement activity using the capillary complement assay. Percent inhibition are calculated by comparison with simultaneous controls.

[3] = test system: complement activity of sera; assay: Guinea Pig Intraperitoneal Test (GPIP); conditions: Cavia porcellus, ip, 200 mg./kg. i.p., read-out: In vivo Activity (Guinea Pig) Intraperitoneal % Inhibition
Method: as §1, with “[…],” for “taken by orbital sinus puncture 30 minutes and one hour after injections,”, “taken by decapitation 2 hours after injection are collected directly into” left out

| Compound | anticomplementary activity [1] | In vitro Activity 026 (activity in wells, serial dilution assay) [2] [wells] | inhibition at 200 mg/kg ([3]; Time 2 hours) [%] | inhibition at 200 mg/kg ([3]; Time 6 hours) [%] | inhibition at 200 mg/kg ([3]; Time 24 hours) [%] |
| --- | --- | --- | --- | --- | --- |
| pentosanpolysulfoester | has an anticomplementary activity on human serum, both in vitro and in vivo |  |  |  |  |
| C[C@@H]1O[C@@H](OC[C@H]2O[C@@H](Oc3c(-c4ccc(OCC(=O)O)c(OS(=O)(=O)O)c4)oc4cc(OS(=O)(=O)O)cc(OS(=O)(=O)O)c4c3=O)[C@H](OS(=O)(=O)O)[C@@H](OS(=O)(=O)O)[C@@H]2OS(=O)(=O)O)[C@H](OS(=O)(=O)O)[C@H](OS(=O)(=O)O)[C@H]1OS(=O)(=O)O [4'-Carboxymethyl-rutin, nona(H-sulfate)decasodium salt] |  | 10 | 82 | 69 | 18 |
| C[C@@H]1O[C@@H](OC[C@H]2O[C@@H](Oc3c(-c4ccc(OCC(=O)O)c(OS(=O)(=O)O)c4)oc4cc(OCC(=O)O)cc(OS(=O)(=O)O)c4c3=O)[C@H](OS(=O)(=O)O)[C@@H](OS(=O)(=O)O)[C@@H]2OS(=O)(=O)O)[C@H](OS(=O)(=O)O)[C@H](OS(=O)(=O)O)[C@H]1OS(=O)(=O)O [4',7-Bis(carboxymethyl)rutin, octa(H-sulfate), decasodium salt] |  | 11 |  |  |  |
